Reference: EP0878472A1, “Reactive radiation- or thermally- initiated cationically-curable epoxide monomers and compositions made from those monomers” (National Starch and Chemical Investment Holding Corporation, priority 1997, dated 1998)

Columns and labels:
Type in all cases: physicochemical
[1] = Photo-DSC (P-DSC) UV cure of epoxide/diol adhesive compositions (Example 3)
Description: These compositions were compared to control formulations containing a cycloaliphatic epoxide obtained from Union Carbide, as product ERL-4221, which has the structure: [drawing 5]
A sample in the range of 1.5 to 3.0 mg for each composition was exposed to UV radiation and the rate of cure followed by a DPA-7 Perkin-Elmer Photo-Differential Scanning Calorimeter (P-DSC). Each sample was equilibrated to constant temperature (25 °C) on the Calorimeter for one minute and then exposed to irradiation for a total of four minutes using a 100 Watt Mercury short arc lamp. […] The diol used in the compositions, the molar ratio of epoxy to diol, and the DSC results are set out in Table 1 for the inventive styrene epoxy, and in Table 2 for the cycloaliphatic epoxy. In the Tables, Tmax is the time it took to reach the peak maximum exotherm in seconds, and ΔH is the exotherm of the reaction in kJoules per mole of epoxy, measured as the area over the cure from the four minute baseline back to the onset of exotherm.
The time the reaction takes to reach Tmax is a direct indication of the speed of the reaction; thus, the shorter the time (i.e. the sharper the peak), the faster the cure reaction for the epoxy, which is a desirable property for these adhesive compositions. In the following tables, the peak are designated either sharp or broad; for purposes herein, if more than half the exotherm occurred in the first 30 seconds, the peak was defined as sharp, and conversely, if less than half the exotherm occurred in the first 30 seconds, the peak was defined as broad.
The ΔH values are a direct indication of the degree of epoxy ring opening, with the more negative numbers reflecting the higher degree of conversion of the epoxy.

[2] = Photo-DSC analysis of various styrene oxides formulated with photoinitiator and diol (Example 6)
Description: A sample in the range of 1.5 to 3.0 mg for each composition was exposed to UV radiation and the rate of cure followed by a DPA-7 Perkin-Elmer Photo-Differential Scanning Calorimeter (P-DSC). Each sample was equilibrated to constant temperature (25 °C) on the Calorimeter for one minute and then exposed to irradiation for a total of four minutes using a 100 Watt Mercury short arc lamp. […] In the Tables, Tmax is the time it took to reach the peak maximum exotherm in seconds, and ΔH is the exotherm of the reaction in kJoules per mole of epoxy, measured as the area over the cure from the four minute baseline back to the onset of exotherm.
Photo-DSC of various styrene oxides was conducted by formulating the epoxides with a photoinitiator and a diol.

[3] = Storage stability of the epoxide at room temperature
Description: The epoxidation may be performed on the starting olefinic compound by any suitable method known in the art, but is preferably conducted through a potassium monopersulfate/acetone oxidation of the olefinic portion of the corresponding styrene. The styrene compound is suspended in a mixture of acetone and water, and buffered with sodium bicarbonate, which serves to prevent decomposition of the resultant oxides. This suspension is then treated with an excess of the oxidant, provided as an aqueous solution of the monopersulfate compound (2KHSO5.KHSO4.K2SO4,) (Oxone®, a product of DuPont). The recovered solution is partitioned with ethyl acetate, toluene, methylene chloride, or other suitable solvent. Workup consists of washing the organic layer with water followed by drying with a non-acidic drying agent (e.g., anhydrous […]). Filtering this mixture, followed by removal of organic solvent in vacuo, affords the desired epoxide in high yield without further purification. […]
A suspension of 1 equivalent of 1,3-diisopropenyl benzene (5mL, 0.925g/mL, 29.2mmol) and 6 equivalents of sodium bicarbonate (15.9g, 190mmol) in a 2 : 1 mixture (volume : volume) of acetone : water (total 450mL) was treated with an aqueous solution containing 2 equivalents of potassium persulfate (Oxone®) (36.5g, 59.3mmol). […] The pH was monitored during this time and remained neutral. […]

[4] = Stepanol PS-4002, Epoxy:Diol 1:1
[5] = Stepanol PS-4002, Epoxy:Diol 3:1

1,3-diisopropenylbenzene dioxide [Example 1]
Tmax ([1]; MP-diol, Epoxy:Diol 1:1): 4.35 s
ΔH ([1]; MP-diol, Epoxy:Diol 1:1): -77.4 kJ/mole epoxide
Tmax ([1]; MP-diol, Epoxy:Diol 3:1): 2.94 s
ΔH ([1]; MP-diol, Epoxy:Diol 3:1): -58.2 kJ/mole epoxide
Tmax ([1]; Rucoflex 107, Epoxy:Diol 1:1): 4.32 s
ΔH ([1]; Rucoflex 107, Epoxy:Diol 1:1): -84.1 kJ/mole epoxide
Tmax ([1]; Rucoflex 107, Epoxy:Diol 3:1): 4.20 s
ΔH ([1]; Rucoflex 107, Epoxy:Diol 3:1): -79.1 kJ/mole epoxide
Tmax [1, 4]: 6.12 s
ΔH [1, 4]: -76.0 kJ/mole epoxide
Tmax [1, 5]: 4.83 s
ΔH [1, 5]: -62.6 kJ/mole epoxide
Tmax ([1]; SynFac 8031, Epoxy:Diol 1:1): 4.74 s
ΔH ([1]; SynFac 8031, Epoxy:Diol 1:1): -71.8 kJ/mole epoxide
Tmax ([1]; SynFac 8031, Epoxy:Diol 3:1): 3.57 s
ΔH ([1]; SynFac 8031, Epoxy:Diol 3:1): -65.5 kJ/mole epoxide
Tmax ([1]; Tone 0201, Epoxy:Diol 1:1): 3.57 s
ΔH ([1]; Tone 0201, Epoxy:Diol 1:1): -73.4 kJ/mole epoxide
Tmax ([1]; Tone 0201, Epoxy:Diol 1:3): 4.59 s
ΔH ([1]; Tone 0201, Epoxy:Diol 1:3): -75.9 kJ/mole epoxide
Tmax ([1]; Tone 0201, Epoxy:Diol 3:1): 3.96 s
ΔH ([1]; Tone 0201, Epoxy:Diol 3:1): -56.4 kJ/mole epoxide
Tmax ([1]; no diol, 1% UVI-6974, 25 °C): 3.84 s
ΔH ([1]; no diol, 1% UVI-6974, 25 °C): -57.8 kJ/mole epoxide
ΔH ([2]; Tone polyol, Epoxy:Diol 1:1): -72.8 kJ/Mole EPOXIDE
ΔH ([2]; no diol): -57.8 kJ/Mole EPOXIDE
advancement of the epoxide ([3]; after 13 days at room temperature): no advancement

O=C(OCC1CCC2OC2C1)C1CCC2OC2C1 (stereo not drawn) [ERL-4221]
Tmax ([1]; MP-diol, Epoxy:Diol 1:1): 21.20 s
ΔH ([1]; MP-diol, Epoxy:Diol 1:1): -78.4 kJ/mole epoxide
Tmax ([1]; MP-diol, Epoxy:Diol 3:1): 6.39 s
ΔH ([1]; MP-diol, Epoxy:Diol 3:1): -49.0 kJ/mole epoxide
Tmax ([1]; Rucoflex 107, Epoxy:Diol 1:1): 6.81 s
ΔH ([1]; Rucoflex 107, Epoxy:Diol 1:1): -68.9 kJ/mole epoxide
Tmax ([1]; Rucoflex 107, Epoxy:Diol 3:1): 2.10 s
ΔH ([1]; Rucoflex 107, Epoxy:Diol 3:1): -42.9 kJ/mole epoxide
Tmax [1, 4]: 17.10 s
ΔH [1, 4]: -79.4 kJ/mole epoxide
Tmax [1, 5]: 5.34 s
ΔH [1, 5]: -14.3 kJ/mole epoxide
Tmax ([1]; SynFac 8031, Epoxy:Diol 1:1): 13.47 s
ΔH ([1]; SynFac 8031, Epoxy:Diol 1:1): -67.8 kJ/mole epoxide
Tmax ([1]; SynFac 8031, Epoxy:Diol 3:1): 13.17 s
ΔH ([1]; SynFac 8031, Epoxy:Diol 3:1): -39.7 kJ/mole epoxide
Tmax ([1]; Tone 0201, Epoxy:Diol 1:1): 9.21 s
ΔH ([1]; Tone 0201, Epoxy:Diol 1:1): -62.0 kJ/mole epoxide
Tmax ([1]; Tone 0201, Epoxy:Diol 1:3): 42.66 s
ΔH ([1]; Tone 0201, Epoxy:Diol 1:3): -44.0 kJ/mole epoxide
Tmax ([1]; Tone 0201, Epoxy:Diol 3:1): 6.00 s
ΔH ([1]; Tone 0201, Epoxy:Diol 3:1): -30.3 kJ/mole epoxide
Tmax ([1]; no diol, 1% UVI-6974, 25 °C): 4.62 s
ΔH ([1]; no diol, 1% UVI-6974, 25 °C): -10.0 kJ/mole epoxide
extents of cure ([1]; range over all diols and ratios of Tables 1 and 2): -79.4 to -10.0 kJ

CC1(c2ccccc2)CO1 (stereo not drawn) [alpha methyl styrene epoxy]
ΔH ([2]; MP-diol, Epoxy:Diol 1:1): -80.9 kJ/Mole EPOXIDE
ΔH ([2]; MP-diol, Epoxy:Diol 3:1): -56.4 kJ/Mole EPOXIDE
ΔH ([2]; Tone polyol, Epoxy:Diol 1:1): -76.5 kJ/Mole EPOXIDE
ΔH ([2]; Tone polyol, Epoxy:Diol 3:1): -66.7 kJ/Mole EPOXIDE
ΔH ([2]; no diol): -53.3 kJ/Mole EPOXIDE

CC1OC1c1ccccc1 (stereo not drawn) [beta-methyl styrene epoxy, beta-methyl styrene mono-epoxide]
ΔH ([2]; MP-diol, Epoxy:Diol 1:1): -102.6 kJ/Mole EPOXIDE
ΔH ([2]; MP-diol, Epoxy:Diol 3:1): -75.7 kJ/Mole EPOXIDE
ΔH ([2]; Tone polyol, Epoxy:Diol 1:1): -80.5 kJ/Mole EPOXIDE
ΔH ([2]; Tone polyol, Epoxy:Diol 3:1): -54.5 kJ/Mole EPOXIDE
ΔH ([2]; no diol): -85.4 kJ/Mole EPOXIDE

CC(=O)OCC1OC1c1ccccc1 (stereo not drawn) [cinnamyl acetate epoxy, cinnamyl acetate epoxide]
ΔH ([2]; MP-diol, Epoxy:Diol 1:1): -27.5 kJ/Mole EPOXIDE
ΔH ([2]; MP-diol, Epoxy:Diol 3:1): -16.1 kJ/Mole EPOXIDE
ΔH ([2]; Tone polyol, Epoxy:Diol 1:1): -55.6 kJ/Mole EPOXIDE
ΔH ([2]; Tone polyol, Epoxy:Diol 3:1): -30.8 kJ/Mole EPOXIDE
ΔH ([2]; no diol): 0 kJ/Mole EPOXIDE

COCC1OC1c1ccccc1 (stereo not drawn) [cinnamyl methyl ether epoxy, cinnamyl methyl ether epoxide]
ΔH ([2]; MP-diol, Epoxy:Diol 1:1): -57.8 kJ/Mole EPOXIDE
ΔH ([2]; MP-diol, Epoxy:Diol 3:1): -63.6 kJ/Mole EPOXIDE
ΔH ([2]; Tone polyol, Epoxy:Diol 1:1): -98,8 kJ/Mole EPOXIDE
ΔH ([2]; Tone polyol, Epoxy:Diol 3:1): -82,4 kJ/Mole EPOXIDE
ΔH ([2]; no diol): -43.9 kJ/Mole EPOXIDE

COc1cc(C2OC2C)ccc1OC(C)=O (stereo not drawn) [isoeugenol acetate epoxy, isoeugenol acetate epoxide]
ΔH ([2]; MP-diol, Epoxy:Diol 1:1): -70,1 kJ/Mole EPOXIDE
ΔH ([2]; MP-diol, Epoxy:Diol 3:1): -67.6 kJ/Mole EPOXIDE
ΔH ([2]; Tone polyol, Epoxy:Diol 1:1): -75.0 kJ/Mole EPOXIDE
ΔH ([2]; Tone polyol, Epoxy:Diol 3:1): -65.0 kJ/Mole EPOXIDE
ΔH ([2]; no diol): -15.7 kJ/Mole EPOXIDE

divinylbenzene dioxide [Example 2]
advancement of the epoxide ([3]; after one year at room temperature): no advancement
